The target in experiment [1] is Poly [ADP-ribose] polymerase 1 (Homo sapiens) (UniProt P09874). The experiment in a line: Inhibition of PARP1 (unknown origin) at 2.8 uM.
In experiment [2] the test system is PC-12. The experiment in a line: Neuroprotective activity against H2O2 -mediated injury in rat PC12 cells assessed as cell survival at 0.01 uM relative to control. In kind it is functional. As to conditions: read-out: Survival.
For experiment [3], the system named is PC-12. Description: Neuroprotective activity against H2O2 -mediated injury in rat PC12 cells assessed as cell survival at 0.1 uM relative to control. To be noted: read-out: Survival. It is filed as functional.
Experiment [4] relates to PC-12. The experiment in a line: Neuroprotective activity against H2O2 -mediated injury in rat PC12 cells assessed as cell survival at 1 uM relative to control. In kind it is functional. To be noted: read-out: Survival.

Chain of Poly [ADP-ribose] polymerase 1 (Homo sapiens) (P09874 whole entry): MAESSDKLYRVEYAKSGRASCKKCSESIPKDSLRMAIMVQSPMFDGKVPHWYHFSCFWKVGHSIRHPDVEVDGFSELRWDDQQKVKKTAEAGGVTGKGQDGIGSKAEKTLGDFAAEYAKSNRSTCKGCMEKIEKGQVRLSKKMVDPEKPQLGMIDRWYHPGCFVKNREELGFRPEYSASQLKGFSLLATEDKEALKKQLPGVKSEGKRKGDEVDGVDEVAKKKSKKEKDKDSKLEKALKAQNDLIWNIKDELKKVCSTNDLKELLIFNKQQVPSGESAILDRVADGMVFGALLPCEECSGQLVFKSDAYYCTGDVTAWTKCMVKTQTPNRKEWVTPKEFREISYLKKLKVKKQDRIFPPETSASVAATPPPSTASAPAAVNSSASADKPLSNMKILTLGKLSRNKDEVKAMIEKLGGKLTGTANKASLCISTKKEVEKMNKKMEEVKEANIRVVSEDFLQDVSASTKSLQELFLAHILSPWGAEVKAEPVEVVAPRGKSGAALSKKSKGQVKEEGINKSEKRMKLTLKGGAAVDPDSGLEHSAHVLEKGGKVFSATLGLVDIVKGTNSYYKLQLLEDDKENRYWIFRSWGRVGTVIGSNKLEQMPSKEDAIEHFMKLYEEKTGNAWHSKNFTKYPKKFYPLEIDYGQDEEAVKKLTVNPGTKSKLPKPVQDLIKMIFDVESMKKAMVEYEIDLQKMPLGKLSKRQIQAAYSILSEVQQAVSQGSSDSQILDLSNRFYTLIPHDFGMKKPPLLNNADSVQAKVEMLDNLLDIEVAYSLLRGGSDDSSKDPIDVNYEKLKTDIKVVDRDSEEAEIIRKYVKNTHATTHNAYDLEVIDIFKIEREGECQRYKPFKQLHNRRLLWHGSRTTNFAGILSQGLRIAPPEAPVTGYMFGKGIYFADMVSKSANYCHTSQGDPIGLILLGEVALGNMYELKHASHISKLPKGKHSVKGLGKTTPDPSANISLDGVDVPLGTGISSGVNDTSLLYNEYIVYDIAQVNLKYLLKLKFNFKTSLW

By inhibition is commonly meant the share of the control response that was lost under treatment. As for `NC(=O)c1ccccc1`, the inhibition in experiment [1] worked out at 59.3%.

For `O=c1[nH]nc2c3c(cccc13)N=C(c1ccccc1)N2`, the viability at 0.01 µM in experiment [2] amounted to 81.6%. Further, the viability at 0.1 µM in experiment [3] was 98.2%. Besides, in experiment [4], the viability at 1 µM amounted to 88.5%.

Take `Cc1ccc(C2=Nc3cccc4c(=O)[nH]nc(c34)N2)cc1`: the viability at 0.01 µM in experiment [2] is 70.9%. Further, in experiment [3], the viability at 0.1 µM came to 97.2%. Moreover, the viability at 1 µM in experiment [4] was 98%.

As to `COCCOC(=O)C1=C(C)NC(C)=C(C(=O)OC(C)C)C1c1cccc([N+](=O)[O-])c1` (stereo not drawn) [NIMODIPINE], the viability at 1 µM in experiment [4] was found to be 90.4%.
